# Source: patent publication US12012403B2, “Aryl sulfonyl compounds as CCR6 inhibitors” (CHEMOCENTRYX, INC., priority 2021, dated 2024)
# Biological target: T1, human CCR6 (Homo sapiens, UniProt P51684)
# T1 construct: expressed in transfected cells; host or cells: Ba/F3 cells (murine pro-B line), hCCR6-transfected, CMV promoter, sodium butyrate induction
# T1 sequence (P51684 1-374): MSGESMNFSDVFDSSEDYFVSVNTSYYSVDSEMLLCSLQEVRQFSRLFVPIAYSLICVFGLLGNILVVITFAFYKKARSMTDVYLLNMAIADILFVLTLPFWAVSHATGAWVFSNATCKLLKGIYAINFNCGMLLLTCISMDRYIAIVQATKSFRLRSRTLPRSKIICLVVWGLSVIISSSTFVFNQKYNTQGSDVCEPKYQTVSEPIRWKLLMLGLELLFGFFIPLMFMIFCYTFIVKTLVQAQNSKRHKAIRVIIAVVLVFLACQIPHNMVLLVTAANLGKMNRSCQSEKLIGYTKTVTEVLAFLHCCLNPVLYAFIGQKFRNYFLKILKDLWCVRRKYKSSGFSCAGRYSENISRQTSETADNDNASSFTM
# Test: Migration (chemotaxis) assay, hCCR6-transfected Ba/F3 cells toward CCL20
# Type: cell-based
# Settings: hCCR6-transfected Ba/F3 cells in human serum; recombinant human CCL20 10 nM; 37° C. 45 minutes; read-out: Potency (IC50 value in the migration assay)
# From the text: A chemotaxis assay can be used to determine the efficacy of potential receptor antagonists at blocking the migration mediated through chemokine receptors, such as CCR6. This assay is routinely performed using the ChemoTX® microchamber system with a 5-μm pore-sized polycarbonate membrane. Chemokine receptor-expressing cells are required for such an assay. In this case, Ba/F3 cells (Palacios et al., Nature, 309:126, 1984) transfected with the gene for human CCR6 under control of the CMV promotor were used. To begin such an assay, hCCR6-transfected Ba/F3 cells are first grown for 24 hr in medium supplemented with sodium butyrate, which increases CCR6 transcription via the CMV promotor. The prepared Ba/F3 cells, are collected by centrifugation at 400×g at room temperature, then suspended at 4 million/ml in human serum. The compound being tested is serially diluted from a maximum final concentration of 10 μM (or an equivalent volume of its solvent (DMSO)) and is then added to the cell/serum mixture. Separately, recombinant human CCL20 (MIP-3α/LARC) at its EC50 concentration (10 nM) is placed in the lower wells of the ChemoTX® plate. The 5-μm (pore size) polycarbonate membrane is placed onto the plate, and 20 μL of the cell/compound mixture is transferred onto each well of the membrane. The plates are incubated at 37° C. for 45 minutes, after which the polycarbonate membranes are removed and 5 μl of the DNA-intercalating dye CyQUANT (Invitrogen, Carlsbad, CA) is added to the lower wells. The amount of fluorescence, corresponding to the number of migrated cells, is measured using a Spectrafluor Plus plate reader (TECAN, San Jose, CA).
row,Compound,IC50 [nM]
1,Cc1c(-c2ccc(S(=O)(=O)N3CCC(Nc4ccc(C(F)(F)F)cn4)CC3)cc2)cnc2[nH]ccc12 [Example 1.023],< 5
2,Cc1nc2[nH]ccc2cc1-c1ccc(S(=O)(=O)N2CCC(Nc3ccc(C(F)(F)F)cn3)CC2)cc1 [Example 1.024],< 5
3,NC(=O)N1CCC2(CC1)C(=O)Nc1ccc(-c3ccc(S(=O)(=O)N4CCC(Nc5ccc(C(F)(F)F)cn5)CC4)cc3)cc12 [Example 1.025],5 to 100
4,CC(=O)N1CCC2(CC1)C(=O)Nc1ccc(-c3ccc(S(=O)(=O)N4CCC(Nc5ccc(C(F)(F)F)cn5)CC4)cc3)cc12 [Example 1.026],5 to 100
5,COC(=O)c1cc(-c2ccc(S(=O)(=O)N3CCC(Nc4ccc(C(F)(F)F)cn4)CC3)cc2)cc2c1NC(=O)C2 [Example 1.027],< 5
6,O=C1Nc2ccc(-c3ccc(S(=O)(=O)N4CCC(Nc5ccc(C(F)(F)F)cn5)CC4)cc3)cc2C12CCNCC2 [Example 1.028],5 to 100
7,N#Cc1cn(CCO)c2ncc(-c3ccc(S(=O)(=O)N4CCC(Nc5ccc(C(F)(F)F)cn5)CC4)cc3)cc12 [Example 1.029],< 5
8,O=S(=O)(c1ccc(-c2cnc3[nH]ccc3c2F)cc1)N1CCC(Nc2ccc(C(F)(F)F)cn2)CC1 [Example 1.030],< 5
9,CC1(C)Oc2ccc(-c3ccc(S(=O)(=O)N4CCC(Nc5ccc(C(F)(F)F)cn5)CC4)cc3)cc2NC1=O [Example 1.031],5 to 100
10,O=S(=O)(c1ccc(-c2ccc3c(c2)OCCO3)cc1)N1CCC(Nc2ccc(C(F)(F)F)cn2)CC1 [Example 1.032],100 to 10000
11,O=C1c2cc(-c3ccc(S(=O)(=O)N4CCC(Nc5ccc(C(F)(F)F)cn5)CC4)cc3)ccc2CN1CCO [Example 1.033],< 5
12,O=S(=O)(c1ccc(-c2ccc3c(c2)C2(CCOCC2)CN3)cc1)N1CCC(Nc2ccc(C(F)(F)F)cn2)CC1 [Example 1.034],5 to 100
13,O=S(=O)(c1ccc(-c2ccc3c(c2)NCCO3)cc1)N1CCC(Nc2ccc(C(F)(F)F)cn2)CC1 [Example 1.035],5 to 100
14,O=C1Nc2ccc(-c3ccc(S(=O)(=O)N4CCC(Nc5ccc(C(F)(F)F)cn5)CC4)cc3)cc2C12CCOCC2 [Example 1.036],< 5
15,CC(C)(C)[Si](C)(C)OCCN1Cc2ccc(-c3ccc(S(=O)(=O)N4CCC(Nc5ccc(C(F)(F)F)cn5)CC4)cc3)cc2C1=O [Example 1.038],5 to 100
16,N#Cc1cn(CC(N)=O)c2ncc(-c3ccc(S(=O)(=O)N4CCC(Nc5ccc(C(F)(F)F)cn5)CC4)cc3)cc12 [Example 1.039],< 5
17,NC(=O)CN1Cc2ccc(-c3ccc(S(=O)(=O)N4CCC(Nc5ccc(C(F)(F)F)cn5)CC4)cc3)cc2C1=O [Example 1.040],5 to 100
18,O=c1[nH]c2ccc(-c3ccc(S(=O)(=O)N4CCC(Nc5ccc(C(F)(F)F)cn5)CC4)cc3)cc2n1C1COC1 [Example 1.041],5 to 100
19,O=S(=O)(c1ccc(-c2cc3cc[nH]c3nc2F)cc1)N1CCC(Nc2ccc(C(F)(F)F)cn2)CC1 [Example 1.042],5 to 100
20,O=C1Cc2cc(-c3ccc(S(=O)(=O)N4CCC(Nc5ccc(C(F)(F)F)cn5)CC4)cc3)ncc2N1 [Example 1.043],100 to 10000
21,CC(C)(O)OC(=O)N1CCC2(CC1)C(=O)Nc1ccc(-c3ccc(S(=O)(=O)N4CCC(Nc5ccc(C(F)(F)F)cn5)CC4)cc3)cc12 [Example 1.044],5 to 100
22,COc1cc(-c2ccc(S(=O)(=O)N3CCC(Nc4ccc(C(F)(F)F)cn4)CC3)cc2)cc2c1NC(=O)C2 [Example 1.045],5 to 100
23,Cn1nc(N)c2cc(-c3ccc(S(=O)(=O)N4CCC(Nc5ccc(C(F)(F)F)cn5)CC4)cc3)ccc21 [Example 1.046],< 5
24,O=C1CCc2ccc(-c3ccc(S(=O)(=O)N4CCC(Nc5ccc(C(F)(F)F)cn5)CC4)cc3)cc2N1 [Example 1.047],5 to 100
25,O=C1NCCc2nc(-c3ccc(S(=O)(=O)N4CCC(Nc5ccc(C(F)(F)F)cn5)CC4)cc3)sc21 [Example 1.048],5 to 100
26,CNc1n[nH]c2ncc(-c3ccc(S(=O)(=O)N4CCC(Nc5ccc(C(F)(F)F)cn5)CC4)cc3)cc12 [Example 1.049],< 5
27,O=C1Cc2cc(-c3ccc(S(=O)(=O)N4CCC(Nc5ccc(C(F)(F)F)cc5)CC4)cc3)ccc2N1 [Example 1.050],5 to 100

row,Compound,IC50 [nM]
1,O=C1Nc2ccc(-c3ccc(S(=O)(=O)N4CCC(Nc5ccc(C(F)(F)F)cn5)CC4)cc3)cc2C12CC2 [Example 1.051],< 5
2,O=c1[nH]c2ccc(-c3ccc(S(=O)(=O)N4CCC(Nc5ccc(C(F)(F)F)cn5)CC4)cc3)cc2n1C1CC1 [Example 1.052],5 to 100
3,CC(=O)N1Cc2ccc(-c3ccc(S(=O)(=O)N4CCC(Nc5ccc(C(F)(F)F)cn5)CC4)cc3)cc2C1 [Example 1.053],< 5
4,NC(=O)N1Cc2ccc(-c3ccc(S(=O)(=O)N4CCC(Nc5ccc(C(F)(F)F)cn5)CC4)cc3)cc2C1 [Example 1.054],< 5
5,N#Cc1n[nH]c2ccc(-c3ccc(S(=O)(=O)N4CCC(Nc5ccc(C(F)(F)F)cn5)CC4)cc3)cc12 [Example 1.055],< 5
6,N#Cc1c[nH]c2ncc(-c3ccc(S(=O)(=O)N4CCC(Nc5ccc(C(F)(F)F)cc5)CC4)cc3)cc12 [Example 1.056],< 5
7,O=c1[nH]c(=O)c2ccc(-c3ccc(S(=O)(=O)N4CCC(Nc5ccc(C(F)(F)F)cn5)CC4)cc3)cc2[nH]1 [Example 1.057],5 to 100
8,O=S(=O)(c1ccc(-c2ccc3c(c2)CNC3)cc1)N1CCC(Nc2ccc(C(F)(F)F)cn2)CC1 [Example 1.058],100 to 10000
9,O=c1[nH]ncc2cc(-c3ccc(S(=O)(=O)N4CCC(Nc5ccc(C(F)(F)F)cn5)CC4)cc3)ccc12 [Example 1.059],< 5
10,N#Cc1ccc2nc(-c3ccc(S(=O)(=O)N4CCC(Nc5ccc(C(F)(F)F)cn5)CC4)cc3)sc2c1 [Example 1.060],5 to 100
11,NC(=O)c1ccc(-c2ccc(S(=O)(=O)N3CCC(Nc4ccc(C(F)(F)F)cn4)CC3)cc2)c2cc[nH]c12 [Example 1.061],5 to 100
12,O=C1NS(=O)(=O)c2cc(-c3ccc(S(=O)(=O)N4CCC(Nc5ccc(C(F)(F)F)cn5)CC4)cc3)ccc21 [Example 1.062],5 to 100
13,O=C1NS(=O)(=O)c2ccc(-c3ccc(S(=O)(=O)N4CCC(Nc5ccc(C(F)(F)F)cn5)CC4)cc3)cc21 [Example 1.063],5 to 100
14,O=C1Nc2ncc(-c3ccc(S(=O)(=O)N4CCC(Nc5ccc(C(F)(F)F)cn5)CC4)cc3)cc2C12CCOCC2 [Example 1.064],< 5
15,O=c1[nH]c2ncc(-c3ccc(S(=O)(=O)N4CCC(Nc5ccc(C(F)(F)F)cn5)CC4)cc3)cc2o1 [Example 1.065],5 to 100
16,O=C1NCCc2ccc(-c3ccc(S(=O)(=O)N4CCC(Nc5ccc(C(F)(F)F)cn5)CC4)cc3)cc21 [Example 1.066],< 5
17,O=c1[nH]c2cc(-c3ccc(S(=O)(=O)N4CCC(Nc5ccc(C(F)(F)F)cn5)CC4)cc3)cnc2[nH]1 [Example 1.067],< 5
18,Nc1n[nH]c2ncc(-c3ccc(S(=O)(=O)N4CCC(Nc5ccc(C(F)(F)F)cn5)CC4)cc3)cc12 [Example 1.068],< 5
19,CN(C)c1n[nH]c2ccc(-c3ccc(S(=O)(=O)N4CCC(Nc5ccc(C(F)(F)F)cn5)CC4)cc3)cc12 [Example 1.069],5 to 100
20,N#Cc1c(N)[nH]c2ccc(-c3ccc(S(=O)(=O)[C@H]4CC[C@H](Nc5ccc(C(F)(F)F)cn5)CC4)cc3)cc12 [Example 1.070],< 5
21,N#Cc1c[nH]c2ncc(-c3ccc(S(=O)(=O)[C@H]4CC[C@H](Nc5ccc(C(F)(F)F)cn5)CC4)cc3)cc12 [Example 1.071],< 5
22,N#Cc1n[nH]c2ccc(-c3ccc(S(=O)(=O)[C@H]4CC[C@H](Nc5ccc(C(F)(F)F)cn5)CC4)cc3)cc12 [Example 1.072],< 5
23,O=C1Cc2cc(-c3ccc(S(=O)(=O)N4CCC(Nc5ccc(C(F)(F)F)cn5)CC4)cc3)cnc2N1 [Example 1.073],< 5
24,O=C1COc2cc(-c3ccc(S(=O)(=O)N4CCC(Nc5ccc(C(F)(F)F)cn5)CC4)cc3)ccc2N1 [Example 1.074],5 to 100
25,O=C1NCCc2cc(-c3ccc(S(=O)(=O)N4CCC(Nc5ccc(C(F)(F)F)cn5)CC4)cc3)ccc21 [Example 1.075],< 5
26,O=C1Cc2cc(-c3ccc(S(=O)(=O)N4CCC(Nc5ccc(C(F)(F)F)cn5)CC4)cc3)ccc2N1 [Example 1.076],< 5
27,COc1n[nH]c2ccc(-c3ccc(S(=O)(=O)N4CCC(Nc5ccc(C(F)(F)F)cn5)CC4)cc3)cc12 [Example 1.077],5 to 100
